# Patent US10112907B2, “Substituted indazoles for treating tendon and/or ligament injuries” (NOVARTIS AG, priority 2016, dated 2018)
# Where two headings read alike, the source gives them in different places.
# Key:
# [1] = system: Scleraxis (Scx) gene transcriptional activation in TT-D6 Scx-luciferase (ScxL) cell line; test: SCX-LUC in vitro assay (Scx-luciferase reporter); type: cell-based; conditions: Mus musculus
# [2] = system: Tenomodulin (Tnmd) gene expression in rat tail tendon fascicles; test: Ex vivo assay, Tnmd mRNA in tendon fascicles (qPCR); type: cell-based, Sprague Dawley rat
# [3] = system: collagen type I (Col1a2) gene expression in rat tail tendon fascicles; test: Ex vivo assay, Col1a2 mRNA in tendon fascicles (qPCR); type: cell-based, Sprague Dawley rat
# [4] = system: Scleraxis (Scx) gene expression in rat tail tendon fascicles; test: Ex vivo assay, Scx mRNA in tendon fascicles (qPCR); type: cell-based, Sprague Dawley rat
# [5] = 96 h, Table 3, four days, read-out: Scx-Luc (EC50 μM)
# [6] = 96 h, Table 3, four days, read-out: Ex vivo Tnmd (EC50 μM)
# [7] = 96 h, Table 3, four days, read-out: Ex vivo Col1a2 (EC50 μM)
# [8] = 96 h, Table 3, four days, read-out: Ex vivo Scx (EC50 μM)
# [9] = Table 1, read-out: Ex vivo Tnmd (EC50 uM)
# [10] = Table 1, read-out: Ex vivo Col1a2 (EC50 uM)
# [11] = Table 1, read-out: Ex vivo SCX (EC50 uM)
# [12] = Table 1, read-out: Scx-Luc (EC50 uM)
# [13] = read-out: Ex vivo Tnmd (EC50 uM)
# [14] = read-out: Ex vivo Col1a2 (EC50 uM)
# [15] = read-out: Ex vivo SCX (EC50 uM)
Compound,"EC50 [1, 5] [µM]","EC50 [2, 6] [µM]","EC50 [3, 7] [µM]","EC50 [4, 8] [µM]",further results
"CCC1(O)CC(NS(=O)(=O)c2ccc(-c3ccc4[nH]nc(N)c4c3C)c(C)c2)C1 (stereo not shown) [Example 49, 4-(3-amino-4-methyl-1H-indazol-5-yl)-N-(3-ethyl-3-hydroxycyclobutyl)-3-methylbenzenesulfonamide]",0.852,2.78,2.23,3.04,
C[C@@H](O)c1nc2cnc3[nH]ccc3c2n1[C@@H]1CCCOC1 [reference compound],,,,,"EC50 ([1]; read-out: Scx-Luc (EC50 uM)): 1.34 µM; EC50 [2, 9]: 6.11 µM; EC50 [3, 10]: 4.66 µM; EC50 [4, 11]: 0.08 µM"
C[C@@H](O)c1nc2cnc3[nH]ccc3c2n1[C@H]1CC[C@H](C#N)CC1 [reference compound],,,,,"EC50 ([1]; read-out: Scx-Luc (EC50 uM)): 2.69 µM; EC50 [2, 9]: 6.38 µM; EC50 [3, 10]: 6.62 µM; EC50 [4, 11]: 4.27 µM"
O=C(Nc1nc2cccc(-c3ccc(OCc4ccc[n+]([O-])c4)cc3)n2n1)C1CC1 [reference compound],,,,,"EC50 [1, 12]: 0.02 µM; EC50 [2, 9]: 5.99 µM; EC50 [3, 10]: 0.4 µM; EC50 [4, 11]: 0.36 µM"
"Cc1cc(S(=O)(=O)N2CCC[C@H]2CO)ccc1-c1ccc2[nH]nc(N)c2c1C [Example 19, (S)-(1-((4-(3-amino-4-methyl-1H-indazol-5-yl)-3-methylphenyl)sulfonyl)pyrrolidin-2-yl)methanol]",0.431,10,10,10,
"Cc1cc(S(=O)(=O)N2CC(F)(F)C2)ccc1-c1ccc2[nH]nc(N)c2c1C [Example 78, 5-(4-((3,3-difluoroazetidin-1-yl)sulfonyl)-2-methylphenyl)-4-methyl-1H-indazol-3-amine]",2.1,1.89,1.16,4.57,
"Cc1cc(S(=O)(=O)N2CC[C@H](O)C2)ccc1-c1ccc2[nH]nc(N)c2c1C [Example 5, (S)-1-((4-(3-amino-4-methyl-1H-indazol-5-yl)-3-methylphenyl)sulfonyl)pyrrolidin-3-ol]",0.275,1.6,2.63,3.62,
"Cc1cc(S(=O)(=O)NC2CC(O)(C3CC3)C2)ccc1-c1ccc2[nH]nc(N)c2c1C (stereo not shown) [Example 50, 4-(3-amino-4-methyl-1H-indazol-5-yl)-N-(3-cyclopropyl-3-hydroxycyclobutyl)-3-methylbenzenesulfonamide]",1.29,7.38,2.01,3.26,
"Cc1cc(S(=O)(=O)N[C@@H]2COCC[C@H]2O)ccc1-c1ccc2[nH]nc(N)c2c1C [Example 45, 4-(3-amino-4-methyl-1H-indazol-5-yl)-N-((3R,4R)-4-hydroxytetrahydro-2H-pyran-3-yl)-3-methylbenzenesulfonamide]",1.25,2.85,2.41,4.44,
"Cc1cc(S(=O)(=O)NC2CC(O)(Cc3ccccc3)C2)ccc1-c1ccc2[nH]nc(N)c2c1C (stereo not shown) [Example 51, 4-(3-amino-4-methyl-1H-indazol-5-yl)-N-(3-benzyl-3-hydroxycyclobutyl)-3-methylbenzenesulfonamide]",1.58,6.8,6.39,6.98,
"Cc1cc(S(=O)(=O)N2CCC(O)CC2)ccc1-c1ccc2[nH]nc(N)c2c1C [Example 14, 1-((4-(3-amino-4-methyl-1H-indazol-5-yl)-3-methylphenyl)sulfonyl)piperidin-4-ol]",3.92,6.97,2.64,7.28,
N#CC[C@H](C1CCCC1)n1cc(-c2ncnc3[nH]ccc23)cn1 [reference compound],,,,,"EC50 ([1]; read-out: Scx-Luc (EC50 uM)): 0.12 µM; EC50 [2, 13]: 0.74 µM; EC50 [3, 14]: 2.64 µM; EC50 [4, 15]: 3.13 µM"
"Cc1c(-c2ccc(S(=O)(=O)N[C@H]3C[C@@H](O)C3)cc2Cl)ccc2[nH]nc(N)c12 [Example 34, 4-(3-amino-4-methyl-1H-indazol-5-yl)-3-chloro-N-((1s,3s)-3-hydroxycyclobutyl)benzenesulfonamide]",0.614,0.078,5.92,1.54,
C[C@@H](O)c1nc2cnc3[nH]ccc3c2n1[C@H]1CCCOC1 [reference compound],,,,,"EC50 [1, 12]: 0.82 µM; EC50 [2, 9]: 4.19 µM; EC50 [3, 10]: 4.32 µM; EC50 [4, 11]: 3.31 µM"
"Cc1cc(S(=O)(=O)N[C@H]2C[C@@H](O)C2)ccc1-c1ccc2[nH]nc(N)c2c1C [Example 12, 4-(3-amino-4-methyl-1H-indazol-5-yl)-N-((1s,3s)-3-hydroxycyclobutyl)-3-methylbenzenesulfonamide]",2.21,10,10,1.73,
"Cc1cc(S(=O)(=O)N[C@@H]2CCC[C@@H]2O)ccc1-c1ccc2[nH]nc(N)c2c1C [Example 18, 4-(3-amino-4-methyl-1H-indazol-5-yl)-N-((1R,2S)-2-hydroxycyclopentyl)-3-methylbenzenesulfonamide]",0.468,1.06,2.53,2.52,

Compound,"EC50 [1, 5] [µM]","EC50 [2, 6] [µM]","EC50 [3, 7] [µM]","EC50 [4, 8] [µM]",further results
"Cc1cc(S(=O)(=O)N[C@@H]2CCCC[C@H]2O)ccc1-c1ccc2[nH]nc(N)c2c1C [Example 16, 4-(3-amino-4-methyl-1H-indazol-5-yl)-N-((1R,2R)-2-hydroxycyclohexyl)-3-methylbenzenesulfonamide]",0.638,0.447,0.557,1.75,
"Cc1cc(S(=O)(=O)N2CC[C@@H](O)C2)ccc1-c1ccc2[nH]nc(N)c2c1C [Example 4, (R)-1-((4-(3-amino-4-methyl-1H-indazol-5-yl)-3-methylphenyl)sulfonyl)pyrrolidin-3-ol]",0.511,0.513,1.55,1.64,
"Cc1cc(S(=O)(=O)N[C@H]2C[C@@](C)(O)C2)ccc1-c1ccc2[nH]nc(N)c2c1C [Example 40, 4-(3-amino-4-methyl-1H-indazol-5-yl)-N-((1s,3s)-3-hydroxy-3-methylcyclobutyl)-3-methylbenzenesulfonamide]",0.988,2.92,1.82,2.69,
N#CCNC(=O)c1ccc(-c2ccnc(Nc3ccc(N4CCOCC4)cc3)n2)cc1 [reference compound],,,,,"EC50 [1, 12]: 0.12 µM; EC50 [2, 9]: 3.27 µM; EC50 [3, 10]: 4.67 µM; EC50 [4, 11]: 3.92 µM"
O=C(Nc1nc2cccc(-c3ccc(CN4CCS(=O)(=O)CC4)cc3)n2n1)C1CC1 [reference compound],,,,,"EC50 ([1]; read-out: Scx-Luc (EC50 uM)): 4.32 µM; EC50 [2, 13]: 6.93 µM; EC50 [3, 14]: 5.01 µM; EC50 [4, 15]: 5.34 µM"
"Cc1cc(S(=O)(=O)NC2CCC(F)(F)CC2)ccc1-c1ccc2[nH]nc(N)c2c1C [Example 43, 4-(3-amino-4-methyl-1H-indazol-5-yl)-N-(4,4-difluorocyclohexyl)-3-methylbenzenesulfonamide]",0.696,4.87,3.45,3.37,
COc1ccc(-c2nc3c(NCC4CCNCC4)c(Cl)cnc3[nH]2)c(F)c1 [reference compound],,,,,"EC50 [1, 12]: 0.51 µM; EC50 [2, 9]: 0.08 µM; EC50 [3, 10]: 1.15 µM; EC50 [4, 11]: 0.47 µM"
CC1(C)CN(C(=O)c2ccc(-c3cccc4nc(NC(=O)C5CC5)nn34)cc2)C1 [reference compound],,,,,"EC50 ([1]; read-out: Scx-Luc (EC50 uM)): 1.42 µM; EC50 [2, 9]: 3.69 µM; EC50 [3, 10]: 3.62 µM; EC50 [4, 11]: 3.56 µM"
"Cc1cc(S(=O)(=O)N2CC(F)=C[C@H]2CO)ccc1-c1ccc2[nH]nc(N)c2c1C [Example 33, (S)-(1-((4-(3-amino-4-methyl-1H-indazol-5-yl)-3-methylphenyl)sulfonyl)-4-fluoro-2,5-dihydro-1H-pyrrol-2-yl)methanol]",0.17,,,,
"COc1c(-c2ccc(S(=O)(=O)N[C@H]3C[C@](O)(C(F)(F)F)C3)cc2Cl)ccc2[nH]nc(N)c12 [Example 65, 4-(3-amino-4-methoxy-1H-indazol-5-yl)-3-chloro-N-((1s,3s)-3-hydroxy-3-(trifluoromethyl)cyclobutyl)benzenesulfonamide]",1.22,,,,
"Cc1cc(S(=O)(=O)N2CCC[C@H]2C(C)O)ccc1-c1ccc2[nH]nc(N)c2c1C (stereo partly drawn) [Example 60, 1-((S)-1-((4-(3-amino-4-methyl-1H-indazol-5-yl)-3-methylphenyl)sulfonyl)pyrrolidin-2-yl)ethan-1-ol]",1.61,,,,
"Cc1cc(S(=O)(=O)N2CC[C@H]2CO)ccc1-c1ccc2[nH]nc(N)c2c1C [Example 10, (S)-(1-((4-(3-amino-4-methyl-1H-indazol-5-yl)-3-methylphenyl)sulfonyl)azetidin-2-yl)methanol]",1.79,,,,
"Cc1c(-c2ccc(S(=O)(=O)N3CCC[C@H]3CO)cc2Cl)ccc2[nH]nc(N)c12 [Example 38, (S)-(1-((4-(3-amino-4-methyl-1H-indazol-5-yl)-3-chlorophenyl)sulfonyl)pyrrolidin-2-yl)methanol]",2.04,,,,
"Cc1cc(S(=O)(=O)N[C@@H]2CCC[C@@H](C#N)C2)ccc1-c1ccc2[nH]nc(N)c2c1C [Example 26, 4-(3-amino-4-methyl-1H-indazol-5-yl)-N-((1R,3R)-3-cyanocyclohexyl)-3-methylbenzenesulfonamide]",0.745,,,,
"Cc1cc(S(=O)(=O)N[C@H]2CCC[C@]2(C)O)ccc1-c1ccc2[nH]nc(N)c2c1C [Example 58, 4-(3-amino-4-methyl-1H-indazol-5-yl)-N-((1S,2S)-2-hydroxy-2-methylcyclopentyl)-3-methylbenzenesulfonamide]",1.33,,,,
